From patent publication EP4596574A1, “GLP-1/GCG/GIP TRIPLE-RECEPTOR AGONIST AND USE THEREOF” (Sunshine Lake Pharma Co., Ltd., priority 2022, dated 2024)
pEC50: −log10 of the molar value. Starred links: 1 amine or outer side, 2 acyl side, 3 side chain; linkers in the order of their positions; H or OH if unused. Non-standard residues stand in square brackets, D forms with d. Residues, ends and D or L forms follow the SMILES beside them. Groups on a side chain read outwards from the residue. *: point of attachment. C20 diacid = O=C(O)CCCCCCCCCCCCCCCCCCC(=O)*; αMePhe(2-F) = C[C@](N)(Cc1ccccc1F)C(=O)O; γGlu = O=C(O)[C@H](CCC(=O)[*:2])N[*:1]; AEEA = NCCOCCOCC(=O)O; Aib = CC(C)(N)C(=O)O

How the values were obtained:
Type in all cases: cell-based
GIPR = molecular target: T1, GIPR (Homo sapiens, UniProt P48546); experiment: In vitro cell activity, cAMP production in HEK293 cells expressing GIPR; details: HEK293-GIPR cells, cAMP; read-out: GIPR (EC50)
T1 construct: expressed in transfected cells; host or cells: HEK293 (HEK293-GIPR)
T1 sequence (P48546 22-466): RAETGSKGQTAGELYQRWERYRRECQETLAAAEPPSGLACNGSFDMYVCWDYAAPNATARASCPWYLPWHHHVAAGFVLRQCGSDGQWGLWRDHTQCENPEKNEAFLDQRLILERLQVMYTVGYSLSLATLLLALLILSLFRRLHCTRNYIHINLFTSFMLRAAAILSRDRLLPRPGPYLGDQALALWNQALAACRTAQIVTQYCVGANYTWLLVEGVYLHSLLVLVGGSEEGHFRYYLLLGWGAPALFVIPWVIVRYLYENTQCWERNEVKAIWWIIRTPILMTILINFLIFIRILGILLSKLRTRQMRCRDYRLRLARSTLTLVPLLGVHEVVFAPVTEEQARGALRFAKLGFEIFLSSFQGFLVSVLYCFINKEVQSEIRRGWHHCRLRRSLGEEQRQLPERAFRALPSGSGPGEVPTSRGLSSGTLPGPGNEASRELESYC
Procedure, shortened: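 cAMP accumulation is quantified by homogeneous TR-FRET (cAMP-d2 plus anti-cAMP cryptate) in GIPR-expressing HEK293 cells seeded from a 4×10^5 cells/mL suspension and treated with compound. The signal ratio is plotted against concentration and fitted to a four-parameter curve to give EC50.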

GCGR = molecular target: T2, GCGR (Homo sapiens, UniProt P47871); experiment: In vitro cell activity, cAMP production in HEK293 cells expressing GCGR; details: HEK293-GCGR cells, cAMP; read-out: GCGR (EC50)
T2 construct: expressed in transfected cells; host or cells: HEK293 (HEK293-GCGR)
T2 sequence (P47871 26-477, species assumed): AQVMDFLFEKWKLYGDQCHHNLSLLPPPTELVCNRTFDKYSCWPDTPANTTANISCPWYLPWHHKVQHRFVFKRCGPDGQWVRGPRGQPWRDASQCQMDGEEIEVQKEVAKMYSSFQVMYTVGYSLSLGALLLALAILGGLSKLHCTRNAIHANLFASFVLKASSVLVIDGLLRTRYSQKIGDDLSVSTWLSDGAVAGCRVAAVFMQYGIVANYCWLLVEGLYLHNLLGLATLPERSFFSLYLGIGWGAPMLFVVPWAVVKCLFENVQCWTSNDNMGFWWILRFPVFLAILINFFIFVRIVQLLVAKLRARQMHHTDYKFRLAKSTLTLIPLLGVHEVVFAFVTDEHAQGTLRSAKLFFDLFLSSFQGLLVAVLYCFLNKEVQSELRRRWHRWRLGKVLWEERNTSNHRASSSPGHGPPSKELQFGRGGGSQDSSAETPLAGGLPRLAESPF
Procedure, shortened: (§1)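 Cells were plated at 4×10^5 cells/mL, and detection reagents (cAMP-d2, anti-cAMP cryptate, 1:1) were incubated 1 h at room temperature in the dark or overnight at 4 °C.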

GLP-1R = molecular target: T3, GLP-1R (Homo sapiens, UniProt P43220); experiment: In vitro cell activity, cAMP production in HEK293 cells expressing GLP-1R; details: HEK293-GLP-1R cells, cAMP; read-out: GLP-1R (EC50)
T3 construct: expressed in transfected cells; host or cells: HEK293 (HEK293-GLP-1R)
T3 sequence (P43220 24-463, species assumed): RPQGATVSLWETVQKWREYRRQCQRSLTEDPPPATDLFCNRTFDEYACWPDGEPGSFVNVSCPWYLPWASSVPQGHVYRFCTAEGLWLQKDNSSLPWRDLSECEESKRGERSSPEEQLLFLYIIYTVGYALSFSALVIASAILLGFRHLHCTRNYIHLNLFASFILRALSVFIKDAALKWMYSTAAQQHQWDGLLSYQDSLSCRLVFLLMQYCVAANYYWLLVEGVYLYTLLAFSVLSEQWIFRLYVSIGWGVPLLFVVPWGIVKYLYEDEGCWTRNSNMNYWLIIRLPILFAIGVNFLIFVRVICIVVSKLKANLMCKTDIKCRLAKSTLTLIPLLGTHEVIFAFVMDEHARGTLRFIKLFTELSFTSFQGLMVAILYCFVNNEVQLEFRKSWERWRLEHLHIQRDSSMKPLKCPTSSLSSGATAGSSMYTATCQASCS
Procedure, shortened: as §1

SMILES	pEC50 (GIPR)	pEC50 (GCGR)	pEC50 (GLP-1R)
CC[C@H](C)[C@H](NC(=O)[C@H](Cc1ccccc1)NC(=O)[C@H](C)NC(=O)[C@H](CCC(N)=O)NC(=O)[C@H](C)NC(=O)[C@H](CCCNC(=N)N)NC(=O)[C@H](CCCCNC(=O)COCCOCCNC(=O)CC[C@H](NC(=O)CCCCCCCCCCCCCCCCCCC(=O)O)C(=O)O)NC(=O)[C@H](CCC(=O)O)NC(=O)[C@H](CC(=O)O)NC(=O)[C@H](CC(C)C)NC(=O)[C@H](CC(C)C)NC(=O)[C@@H](NC(=O)[C@H](CO)NC(=O)[C@H](Cc1ccc(O)cc1)NC(=O)[C@H](CC(=O)O)NC(=O)[C@H](CO)NC(=O)[C@@H](NC(=O)[C@](C)(Cc1ccccc1F)NC(=O)[C@@H](NC(=O)CNC(=O)[C@H](CCC(N)=O)NC(=O)C(C)(C)NC(=O)[C@@H](N)Cc1ccc(O)cc1)[C@@H](C)O)[C@@H](C)O)[C@@H](C)CC)C(=O)N[C@@H](CCC(=O)O)C(=O)N[C@@H](Cc1ccc(O)cc1)C(=O)N[C@@H](CC(C)C)C(=O)N[C@@H](CC(C)C)C(=O)N[C@@H](CCC(=O)O)C(=O)NCC(=O)NCC(=O)N1CCC[C@H]1C(=O)N[C@@H](CO)C(=O)N[C@@H](CO)C(=O)NCC(=O)N[C@@H](C)C(=O)N1CCC[C@H]1C(=O)N1CCC[C@H]1C(=O)N1CCC[C@H]1C(=O)N[C@@H](CO)C(=O)O [HEC-PT94]	8.88	10.35	9.27
CC[C@H](C)[C@H](NC(=O)[C@H](Cc1ccccc1)NC(=O)[C@H](C)NC(=O)[C@H](CCCNC(=N)N)NC(=O)[C@H](CCC(N)=O)NC(=O)[C@H](C)NC(=O)[C@H](CCCCNC(=O)COCCOCCNC(=O)CC[C@H](NC(=O)CCCCCCCCCCCCCCCCCCC(=O)O)C(=O)O)NC(=O)[C@H](CCC(=O)O)NC(=O)[C@H](CC(=O)O)NC(=O)[C@H](CC(C)C)NC(=O)[C@H](CC(C)C)NC(=O)[C@@H](NC(=O)[C@H](CO)NC(=O)[C@H](Cc1ccc(O)cc1)NC(=O)[C@H](CC(=O)O)NC(=O)[C@H](CO)NC(=O)[C@@H](NC(=O)[C@](C)(Cc1ccccc1F)NC(=O)[C@@H](NC(=O)CNC(=O)[C@H](CCC(N)=O)NC(=O)C(C)(C)NC(=O)[C@@H](N)Cc1ccc(O)cc1)[C@@H](C)O)[C@@H](C)O)[C@@H](C)CC)C(=O)N[C@@H](CCC(=O)O)C(=O)N[C@@H](Cc1ccc(O)cc1)C(=O)N[C@@H](CC(C)C)C(=O)N[C@@H](CC(C)C)C(=O)N[C@@H](C)C(=O)NCC(=O)NCC(=O)N1CCC[C@H]1C(=O)N[C@@H](CO)C(=O)N[C@@H](CO)C(=O)NCC(=O)N[C@@H](C)C(=O)N1CCC[C@H]1C(=O)N1CCC[C@H]1C(=O)N1CCC[C@H]1C(=O)N[C@@H](CO)C(=O)O [HEC-PT95]	9.62	9.17	9.81
CC[C@H](C)[C@H](NC(=O)[C@H](CCC(=O)O)NC(=O)[C@H](CC(=O)O)NC(=O)[C@H](CC(C)C)NC(=O)[C@H](CC(C)C)NC(=O)[C@@H](NC(=O)[C@H](CO)NC(=O)[C@H](Cc1ccc(O)cc1)NC(=O)[C@H](CC(=O)O)NC(=O)[C@H](CO)NC(=O)[C@@H](NC(=O)[C@](C)(Cc1ccccc1F)NC(=O)[C@@H](NC(=O)CNC(=O)[C@H](CCC(N)=O)NC(=O)C(C)(C)NC(=O)[C@@H](N)Cc1ccc(O)cc1)[C@@H](C)O)[C@@H](C)O)[C@@H](C)CC)C(=O)N[C@@H](C)C(=O)N[C@@H](CCC(N)=O)C(=O)N[C@@H](CCCCNC(=O)COCCOCCNC(=O)COCCOCCNC(=O)CC[C@H](NC(=O)CCCCCCCCCCCCCCCCCCC(=O)O)C(=O)O)C(=O)N[C@@H](C)C(=O)N[C@@H](Cc1ccccc1)C(=O)N[C@H](C(=O)N[C@@H](CCC(=O)O)C(=O)N[C@@H](Cc1ccc(O)cc1)C(=O)N[C@@H](CC(C)C)C(=O)N[C@H](C(=O)N[C@@H](C)C(=O)NCC(=O)NCC(=O)N1CCC[C@H]1C(=O)N[C@@H](CO)C(=O)N[C@@H](CO)C(=O)NCC(=O)N[C@@H](C)C(=O)N1CCC[C@H]1C(=O)N1CCC[C@H]1C(=O)N1CCC[C@H]1C(=O)N[C@@H](CO)C(=O)O)[C@@H](C)CC)[C@@H](C)CC [HEC-PT99]	9.75	7.91	9.56
CC[C@H](C)[C@H](NC(=O)[C@H](CCC(=O)O)NC(=O)[C@H](CC(=O)O)NC(=O)[C@H](CC(C)C)NC(=O)[C@H](CC(C)C)NC(=O)[C@@H](NC(=O)[C@H](CO)NC(=O)[C@H](Cc1ccc(O)cc1)NC(=O)[C@H](CC(=O)O)NC(=O)[C@H](CO)NC(=O)[C@@H](NC(=O)[C@](C)(Cc1ccccc1F)NC(=O)[C@@H](NC(=O)CNC(=O)[C@H](CCC(N)=O)NC(=O)C(C)(C)NC(=O)[C@@H](N)Cc1ccc(O)cc1)[C@@H](C)O)[C@@H](C)O)[C@@H](C)CC)C(=O)N[C@@H](C)C(=O)N[C@@H](CCC(N)=O)C(=O)N[C@@H](CCCCNC(=O)COCCOCCNC(=O)COCCOCCNC(=O)CC[C@H](NC(=O)CCCCCCCCCCCCCCCCCCC(=O)O)C(=O)O)C(=O)N[C@@H](C)C(=O)N[C@@H](Cc1ccccc1)C(=O)N[C@H](C(=O)N[C@@H](CCC(N)=O)C(=O)N[C@@H](Cc1c[nH]c2ccccc12)C(=O)N[C@@H](CC(C)C)C(=O)N[C@H](C(=O)N[C@@H](C)C(=O)NCC(=O)NCC(=O)N1CCC[C@H]1C(=O)N[C@@H](CO)C(=O)N[C@@H](CO)C(=O)NCC(=O)N[C@@H](C)C(=O)N1CCC[C@H]1C(=O)N1CCC[C@H]1C(=O)N1CCC[C@H]1C(=O)N[C@@H](CO)C(=O)O)[C@@H](C)CC)C(C)C [HEC-PT100] (H-Y[Aib]QGT[αMePhe(2-F)]TSDYSILLDEIAQK([AEEA-AEEA-γGlu-C20 diacid])AFVQWLIAGGPSSGAPPPS-OH)	10.29	8.02	10.01
CC[C@H](C)[C@H](NC(=O)[C@H](CO)NC(=O)[C@H](Cc1ccc(O)cc1)NC(=O)[C@H](CC(=O)O)NC(=O)[C@H](CO)NC(=O)[C@@H](NC(=O)[C@](C)(Cc1ccccc1F)NC(=O)[C@@H](NC(=O)CNC(=O)[C@H](Cc1c[nH]cn1)NC(=O)C(C)(C)NC(=O)[C@@H](N)Cc1ccc(O)cc1)[C@@H](C)O)[C@@H](C)O)C(=O)N[C@@H](CC(C)C)C(=O)N[C@@H](CC(C)C)C(=O)N[C@@H](CC(=O)O)C(=O)N[C@@H](CCC(=O)O)C(=O)N[C@@H](CCCCNC(=O)COCCOCCNC(=O)CC[C@H](NC(=O)CCCCCCCCCCCCCCCCC(=O)O)C(=O)O)C(=O)N[C@@H](C)C(=O)N[C@@H](CCC(N)=O)C(=O)NC(C)(C)C(=O)N[C@@H](CCC(=O)O)C(=O)N[C@@H](Cc1ccccc1)C(=O)N[C@H](C(=O)N[C@@H](CCC(=O)O)C(=O)N[C@@H](Cc1c[nH]c2ccccc12)C(=O)N[C@@H](CC(C)C)C(=O)N[C@@H](CC(C)C)C(=O)N[C@@H](C)C(=O)NCC(=O)NCC(=O)N1CCC[C@H]1C(=O)N[C@@H](CO)C(=O)N[C@@H](CO)C(=O)NCC(=O)N[C@@H](C)C(=O)N1CCC[C@H]1C(=O)N1CCC[C@H]1C(=O)N1CCC[C@H]1C(=O)N[C@@H](CO)C(N)=O)[C@@H](C)CC [HEC-PT107]	10.10	8.45	9.57
CC[C@H](C)[C@H](NC(=O)[C@H](Cc1ccccc1)NC(=O)[C@H](C)NC(=O)C(C)(C)NC(=O)[C@H](CCC(N)=O)NC(=O)[C@H](C)NC(=O)[C@H](CCCCNC(=O)COCCOCCNC(=O)CC[C@H](NC(=O)CCCCCCCCCCCCCCCCC(=O)O)C(=O)O)NC(=O)[C@H](CCC(=O)O)NC(=O)[C@H](CC(=O)O)NC(=O)[C@H](CC(C)C)NC(=O)[C@H](CC(C)C)NC(=O)[C@@H](NC(=O)[C@H](CO)NC(=O)[C@H](Cc1ccc(O)cc1)NC(=O)[C@H](CC(=O)O)NC(=O)[C@H](CO)NC(=O)[C@@H](NC(=O)[C@](C)(Cc1ccccc1F)NC(=O)[C@@H](NC(=O)CNC(=O)[C@H](CCC(N)=O)NC(=O)C(C)(C)NC(=O)[C@@H](N)Cc1ccc(O)cc1)[C@@H](C)O)[C@@H](C)O)[C@@H](C)CC)C(=O)N[C@@H](CCC(=O)O)C(=O)N[C@@H](Cc1ccc(O)cc1)C(=O)N[C@@H](CC(C)C)C(=O)N[C@@H](CC(C)C)C(=O)N[C@@H](C)C(=O)NCC(=O)NCC(=O)N1CCC[C@H]1C(=O)N[C@@H](CO)C(=O)N[C@@H](CO)C(=O)NCC(=O)N[C@@H](C)C(=O)N1CCC[C@H]1C(=O)N1CCC[C@H]1C(=O)N1CCC[C@H]1C(=O)N[C@@H](CO)C(N)=O [HEC-PT108]	10.27	9.06	9.70
